Values quoted from earlier work, collected in patent US12359156B2, “Platform and method for testing antibiotic sensitivity of a polymicrobial infection” (Wisconsin Alumni Research Foundation, priority 2018, dated 2025).

Test system: infection (patients' bacterial pathogens)
Conditions: phase 3 clinical trial

For CO/N=C(\C(=O)N[C@@H]1C(=O)N2C(C(=O)O)=C(COC(C)=O)CS[C@H]12)c1csc(N)n1 [cefotaxime], which “patients who responded to the antibiotic therapy” value (patients with a "resistant" antibiotic sensitivity test result) is on record?
Its value is 64%.

And the “patients who would respond to the antibiotic therapy” value (patients with a "sensitive" antibiotic sensitivity test result, best case scenario)?
The value was 93%.
